Measurements: patent US10981926B2 (Janssen Pharmaceutica NV, priority 2016, dated 2021)

How the values were obtained:
[1] = target: T1, wild-type Androgen Receptor (AR-wt) (Homo sapiens (Human), UniProt P10275); test: LNCaP-AR-wt ANT reporter assay (antagonist mode); format: cell-based; details: for LNCaP-AR-wt ANT pIC50 / IC50: antagonist mode, pIC50 = −Log10(IC50 in Molar); for Emax: maximum % inhibition of R1881 control response over the tested concentration range, read-out: LNCaP-AR-wt ANT MAX % Inh; for IC50: read-out: LNCaP-AR-wt ANT pIC50 (converted)
T1 sequence (P10275 whole entry): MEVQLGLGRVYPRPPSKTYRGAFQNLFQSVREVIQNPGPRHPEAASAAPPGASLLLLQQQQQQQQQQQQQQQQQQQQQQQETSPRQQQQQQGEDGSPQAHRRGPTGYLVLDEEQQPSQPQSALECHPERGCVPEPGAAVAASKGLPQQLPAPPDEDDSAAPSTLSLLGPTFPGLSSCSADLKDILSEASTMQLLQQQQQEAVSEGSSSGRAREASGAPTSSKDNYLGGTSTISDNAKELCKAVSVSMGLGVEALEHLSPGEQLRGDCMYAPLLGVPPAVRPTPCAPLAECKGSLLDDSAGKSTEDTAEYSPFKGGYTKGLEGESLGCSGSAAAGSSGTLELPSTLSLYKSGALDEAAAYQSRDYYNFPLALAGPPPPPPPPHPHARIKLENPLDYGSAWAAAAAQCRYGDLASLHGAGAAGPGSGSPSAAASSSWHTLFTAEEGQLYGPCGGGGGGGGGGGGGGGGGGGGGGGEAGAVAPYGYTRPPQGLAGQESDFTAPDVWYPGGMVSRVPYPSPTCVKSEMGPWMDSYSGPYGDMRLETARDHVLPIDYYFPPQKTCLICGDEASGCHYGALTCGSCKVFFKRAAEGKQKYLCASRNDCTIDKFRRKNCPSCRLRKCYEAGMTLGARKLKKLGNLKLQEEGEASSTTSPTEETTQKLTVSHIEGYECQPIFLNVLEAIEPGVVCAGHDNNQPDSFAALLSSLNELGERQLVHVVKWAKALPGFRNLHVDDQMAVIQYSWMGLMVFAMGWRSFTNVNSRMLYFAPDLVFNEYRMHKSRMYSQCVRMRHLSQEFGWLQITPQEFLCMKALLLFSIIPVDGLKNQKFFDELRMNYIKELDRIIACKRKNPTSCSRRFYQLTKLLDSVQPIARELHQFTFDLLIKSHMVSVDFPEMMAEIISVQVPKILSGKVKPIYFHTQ

[2] = target: T1, wild-type Androgen Receptor (AR-wt); test: LNCaP-AR-wt AG reporter assay (agonist mode); format: cell-based; details: for LNCaP-AR-wt AG pEC50 / EC50: agonist mode, pEC50 = −Log10(EC50 in Molar); for Emax: maximum % stimulation (agonist response) over the tested concentration range, read-out: LNCaP-AR-wt AG MAX % Stim; for EC50: read-out: LNCaP-AR-wt AG pEC50 (converted)
[3] = target: T2, F876L mutant Androgen Receptor (AR-F876L) (Homo sapiens (Human), UniProt P10275, F877L); test: LNCaP-AR-F876L ANT reporter assay (antagonist mode); format: cell-based; details: for IC50: antagonist mode, pIC50 = −Log10(IC50 in Molar), read-out: LNCaP-AR-F876L ANT pIC50 (converted); for Emax: maximum % inhibition of R1881 control response over the tested concentration range, read-out: LNCaP-AR-F876L ANT MAX % Inh
T2 sequence (P10275 whole entry F877L): as the sequence (P10275 whole entry) above, with F877L counted along it

[4] = target: T2, F876L mutant Androgen Receptor (AR-F876L); test: LNCaP-AR-F876L AG reporter assay (agonist mode); format: cell-based; details: for LNCaP-AR-F876L AG pEC50 / EC50: agonist mode, pEC50 = −Log10(EC50 in Molar); for Emax: maximum % stimulation (agonist response) over the tested concentration range, read-out: LNCaP-AR-F876L AG MAX % Stim; for EC50: read-out: LNCaP-AR-F876L AG pEC50 (converted)
[5] = tested on: rGABA-gated Cl− channel; test: GABA-Gated Cl Channel Antagonist Radioligand Binding Assay; set-up: species or system rat; details: 10 μM single point, [35S]-TBPS, cerebral cortex membrane homogenates
Outline: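 Values give percent inhibition of control specific […] (3 nM) binding at a single 10 μM compound concentration. Cerebral cortex membranes, 120 min, 22° C, phosphate buffer pH 7.4 with 500 mM NaCl; 20 μM picrotoxinin sets nonspecific binding; filtration and scintillation read-out.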

SMILES	Emax [1]	Emax [2]	IC50 [3]	Emax [3]	Emax [4]	rGABA-gated Cl− channel % inh @10 μM [5]	IC50 [1]	EC50 [2]	EC50 [4]	LNCaP-AR-wt ANT pIC50 [1]	LNCaP-AR-wt AG pEC50 [2]	LNCaP-AR-F876L AG pEC50 [4]
N#Cc1ncc(N2C(=O)C3(CCC3)N(c3ccc(OC4CC5CCC(N5)C4F)cc3)C2=S)cc1C(F)(F)F (stereo not drawn) [Cpd 93, 5-[8-[4-[(4-fluoro-8-azabicyclo[3.2.1]octan-3-yl)oxy]phenyl]-5-oxo-7-thioxo-6,8-diazaspiro[3.4]octan-6-yl]-3-(trifluoromethyl)pyridine-2-carbonitrile]	105%	0.5%	45.7 nM	102%	0.2%	74.4%	–	–	–	6.77	<4.82	<4.82
CN1C2CCC1C(F)C(Oc1ccc(N3C(=S)N(c4cnc(C#N)c(C(F)(F)F)c4)C(=O)C34CCC4)cc1)C2 (stereo not drawn) [Cpd 94, 5-[8-[4-[(4-fluoro-8-methyl-8-azabicyclo[3.2.1]octan-3-yl)oxy]phenyl]-5-oxo-7-thioxo-6,8-diazaspiro[3.4]octan-6-yl]-3-(trifluoromethyl)pyridine-2-carbonitrile]	101%	0.8%	70.8 nM	101%	0.2%	91.0%	–	–	–	6.78	<4.82	<4.82
CN1CC2(CC(Oc3ccc(N4C(=S)N(c5cnc(C#N)c(C(F)(F)F)c5)C(=O)C45CCC5)cc3)C2)C1 [Cpd 97, 5-[8-[4-[(6-methyl-6-azaspiro[3.3]heptan-2-yl)oxy]phenyl]-5-oxo-7-thioxo-6,8-diazaspiro[3.4]octan-6-yl]-3-(trifluoromethyl)pyridine-2-carbonitrile]	102%	0%	25.1 nM	99.9%	0.2%	4.0%	55 nM	> 15100 nM	> 15100 nM	–	–	–
C#CCN1CCC(Oc2ccc(N3C(=S)N(c4cnc(C#N)c(C(F)(F)F)c4)C(=O)C34CCC4)cn2)CC1 [Cpd 104, 5-[5-oxo-8-[6-[(1-prop-2-ynyl-4-piperidyl)oxy]-3-pyridyl]-7-thioxo-6,8-diazaspiro[3.4]octan-6-yl]-3-(trifluoromethyl)pyridine-2-carbonitrile]	101%	0.5%	41.7 nM	99.6%	0.7%	98.9%	69.2 nM	> 15100 nM	> 15100 nM	–	–	–
N#Cc1ncc(N2C(=O)C3(CCC3)N(c3ccc(OCCN4CC5(COC5)C4)cc3)C2=S)cc1C(F)(F)F [Cpd 105, 5-[8-[4-[2-(6-oxa-2-azaspiro[3.3]heptan-2-yl)ethoxy]phenyl]-5-oxo-7-thioxo-6,8-diazaspiro[3.4]octan-6-yl]-3-(trifluoromethyl)pyridine-2-carbonitrile]	100%	0.1%	66.1 nM	97.6%	0.8%	23.9%	123 nM	> 15100 nM	> 15100 nM	–	–	–
C#CCN1CCC(Oc2ccc(N3C(=S)N(c4cnc(C#N)c(C(F)(F)F)c4)C(=O)C34CCC4)cc2)CC1 [Cpd 107, 5-[5-oxo-8-[4-[(1-prop-2-ynyl-4-piperidyl)oxy]phenyl]-7-thioxo-6,8-diazaspiro[3.4]octan-6-yl]-3-(trifluoromethyl)pyridine-2-carbonitrile]	101%	0.5%	24.5 nM	97.5%	1.9%	87.2%	22.9 nM	> 15100 nM	> 15100 nM	–	–	–
CN1CCC(n2ncc3cc(N4C(=S)N(c5cnc(C#N)c(C(F)(F)F)c5)C(=O)C45CCC5)ccc32)CC1 [Cpd 109, 5-[8-[1-(1-methyl-4-piperidyl)indazol-5-yl]-5-oxo-7-thioxo-6,8-diazaspiro[3.4]octan-6-yl]-3-(trifluoromethyl)pyridine-2-carbonitrile]	96.1%	0%	1350 nM	98.8%	0.2%	20.6%	2820 nM	> 15100 nM	> 15100 nM	–	–	–

Now from value to compound, other results behind:

Emax [1]	Emax [2]	IC50 [3]	Emax [3]	Emax [4]	rGABA-gated Cl− channel % inh @10 μM [5]	IC50 [1]	EC50 [2]	EC50 [4]	SMILES	LNCaP-AR-wt ANT pIC50 [1]	LNCaP-AR-wt AG pEC50 [2]	LNCaP-AR-F876L AG pEC50 [4]
101%	0.3%	20.9 nM	100%	0.1%	−7.6%	46.8 nM	> 15100 nM	> 15100 nM	COCCN1CCC(Oc2ccc(N3C(=S)N(c4cnc(C#N)c(C)c4)C(=O)C34CCC4)cn2)CC1 [Cpd 98, 5-[8-[6-[[1-(2-methoxyethyl)-4-piperidyl]oxy]-3-pyridyl]-5-oxo-7-thioxo-6,8-diazaspiro[3.4]octan-6-yl]-3-methyl-pyridine-2-carbonitrile]	–	–	–
100%	0.1%	58.9 nM	98.9%	0.5%	2.3%	162 nM	> 15100 nM	> 15100 nM	Cc1cc(N2C(=O)C3(CCC3)N(c3ccc(OC4CCN(CCO)CC4)nc3)C2=S)cnc1C#N [Cpd 100, 5-[8-[6-[[1-(2-hydroxyethyl)-4-piperidyl]oxy]-3-pyridyl]-5-oxo-7-thioxo-6,8-diazaspiro[3.4]octan-6-yl]-3-methyl-pyridine-2-carbonitrile]	–	–	–
98.3%	0.7%	1020 nM	94.8%	0.2%	17.1%	1660 nM	> 15100 nM	> 15100 nM	N#Cc1ncc(N2C(=O)C3(CCC3)N(c3ccc4c(c3)CCNC4)C2=S)cc1C(F)(F)F [Cpd 108, 5-(8-oxo-5-(1,2,3,4-tetrahydroisoquinolin-6-yl)-6-thioxo-5,7-diazaspiro[3.4]octan-7-yl)-3-(trifluoromethyl)picolinonitrile]	–	–	–
101%	0.8%	117 nM	101%	0.4%	2.8%	132 nM	> 15100 nM	> 15100 nM	N#Cc1ncc(N2C(=O)C3(CCC3)N(c3ccc(OC4CCCO4)cc3)C2=S)cc1C(F)(F)F (stereo not drawn) [Cpd 111, 5-[5-oxo-8-(4-tetrahydrofuran-2-yloxyphenyl)-7-thioxo-6,8-diazaspiro[3.4]octan-6-yl]-3-(trifluoromethyl)pyridine-2-carbonitrile]	–	–	–
102%	0.3%	282 nM	100%	0.2%	99.1%	269 nM	> 15100 nM	> 15100 nM	N#Cc1ncc(N2C(=O)C3(CCC3)N(c3ccc(C4=C[C@@H](O)[C@H](O)CO4)cc3)C2=S)cc1C(F)(F)F [Cpd 112, 5-(5-(4-((3R,4R)-3,4-dihydroxy-3,4-dihydro-2H-pyran-6-yl)phenyl)-8-oxo-6-thioxo-5,7-diazaspiro[3.4]octan-7-yl)-3-(trifluoromethyl)picolinonitrile]	–	–	–
87%	-0.1%	288 nM	104%	0.1%	40.0%	575 nM	> 15100 nM	> 15100 nM	N#Cc1ncc(N2C(=O)C3(CCC3)N(c3ccc4nn(C5CCNCC5)cc4c3)C2=S)cc1C(F)(F)F [Cpd 115, 5-[5-oxo-8-[2-(4-piperidyl)indazol-5-yl]-7-thioxo-6,8-diazaspiro[3.4]octan-6-yl]-3-(trifluoromethyl)pyridine-2-carbonitrile]	–	–	–
102%	0.1%	195 nM	100%	2.7%	43.1%	537 nM	> 15100 nM	> 15100 nM	N#Cc1ncc(N2C(=O)C3(CCC3)N(c3ccc4c(cnn4C4CCNCC4)c3)C2=S)cc1C(F)(F)F [Cpd 119, 5-[5-oxo-8-[1-(4-piperidyl)indazol-5-yl]-7-thioxo-6,8-diazaspiro[3.4]octan-6-yl]-3-(trifluoromethyl)pyridine-2-carbonitrile]	–	–	–
102%	0.9%	36.3 nM	100%	0.1%	64.0%	77.6 nM	> 15100 nM	> 15100 nM	CN1CCC(Cn2cc3cc(N4C(=S)N(c5cnc(C#N)c(C(F)(F)F)c5)C(=O)C45CCC5)ccc3n2)CC1 [Cpd 129, 5-[8-[2-[(1-methyl-4-piperidyl)methyl]indazol-5-yl]-5-oxo-7-thioxo-6,8-diazaspiro[3.4]octan-6-yl]-3-(trifluoromethyl)pyridine-2-carbonitrile]	–	–	–
